In paper PMC11876601 (Molecular Systems Biology, 2025):
Read-outs that look alike come from different tables or passages of the source.

Test system: AsPC-1 cells
Test: Drug combination viability screen (ATPlite, 72 h);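 as to AUC: area under vehicle-normalized viability curve scaled 0 to 100 percent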;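 as to Curve bottom: fraction of vehicle control viability from four-parameter log-logistic fit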
Type: cell-based, human
Design: key to AUC: AUC of dose-response curve; AUC∆ = AUChypothetical − AUCexperimental; Curve top / Curve bottom / Curve effect size: scale not given here
Details: for Library drug only (ratio): cell viability (library drug/vehicle); for Library drug + GEM low (ratio) / Library drug + GEM high (ratio): cell viability vs vehicle; for Bliss_Library drug + GEM low (ratio) / Bliss_Library drug + GEM high (ratio): hypothetical viability, Bliss model; for EC50: Homo sapiens
Experimental: Cell viability was assessed by measuring ATP levels to indicate metabolic activity.
Afterward, small amounts were transferred to 384-well intermediate plates (Greiner Bio-One GmbH, Germany). […] For drug combination screening, 1000 to 5000 cells were seeded into 384-well plates (CulturPlate™, Perkin Elmer, MA, USA) using a Multidrop™ Combi Reagent Dispenser (Thermo Scientific, MA, USA) in 50 µl medium per well 24 h prior to drug treatment (seeding densities see Appendix Table S1). […] The final DMSO concentration in each well was 0.2%. […] Eight wells per plate without library drug served as negative controls, and sixteen wells per plate containing 5 µM Staurosporine served as positive controls. Control plates not containing any drug were used to correct for incubation effects, and data quality was assessed by calculation of Z-prime of positive and negative controls according to1 Z-prime=1−3SDpos+3SDneg/[…] where SD is the standard deviation. […] Dose–response curves from the experimental and hypothetical data were compared, and shifts in AUC were used to describe combination effects (AUC∆ = AUChypothetical − AUCexperimental). […] Only combinations with R^2 > 0.8 in both conditions were considered in the synergy analysis.

[1] = AsPC-1, GEM high_Bliss (hypothetical data)
[2] = AsPC-1, GEM low_Bliss (hypothetical data)
[3] = AsPC-1, library drug 123.46 nM + GEM 10 nM
[4] = AsPC-1, library drug 123.46 nM + GEM 30 nM
[5] = AsPC-1, library drug 370.37 nM + GEM 10 nM
[6] = AsPC-1, library drug 370.37 nM + GEM 30 nM
[7] = AsPC-1, library drug 1111.11 nM + GEM 10 nM
[8] = AsPC-1, library drug 1111.11 nM + GEM 30 nM
[9] = AsPC-1, library drug 3333.33 nM + GEM 10 nM
[10] = AsPC-1, library drug 3333.33 nM + GEM 30 nM
[11] = AsPC-1, library drug 10000 nM + GEM 10 nM
[12] = AsPC-1, library drug 10000 nM + GEM 30 nM
[13] = ASPC1, read-out: pEC50 (converted)

`CCN1CCN(Cc2ccc(Nc3ncc(F)c(-c4cc(F)c5nc(C)n(C(C)C)c5c4)n3)nc2)CC1` [Abemaciclib] showed an AUC (AsPC-1, GEM high) of 87.77%, a Curve bottom (AsPC-1, GEM high) of 0.63 and a Curve effect size (AsPC-1, GEM high) of 0.23. For the same molecule, the Curve slope (AsPC-1, GEM high) was 0.52, the Curve top (AsPC-1, GEM high) was 0.85 and the AUC [1] was 82.66%. For the same molecule, the Curve bottom [1] was -0.27, the Curve effect size [1] was 0.57 and the Curve slope [1] was 0.36. It also gave a Curve top [1] of 0.8, an AUC (AsPC-1, GEM low) of 89.92% and a Curve bottom (AsPC-1, GEM low) of 0.62. The Curve effect size (AsPC-1, GEM low) was 0.28, the Curve slope (AsPC-1, GEM low) was 1.21 and the Curve top (AsPC-1, GEM low) was 0.86. It also gave an AUC [2] of 82.59%, a Curve bottom [2] of -0.23 and a Curve effect size [2] of 0.57. For the same molecule, the Curve slope [2] was 0.36, the Curve top [2] was 0.87 and the “Library drug only (ratio)” value (AsPC-1, library drug 123.46 nM) was 0.76. For the same molecule, the “Library drug only (ratio)” value (AsPC-1, library drug 370.37 nM) was 0.72, the “Library drug only (ratio)” value (AsPC-1, library drug 1111.11 nM) was 0.63 and the “Library drug only (ratio)” value (AsPC-1, library drug 3333.33 nM) was 0.64. The “Library drug only (ratio)” value (AsPC-1, library drug 10000 nM) was 0.33, the “Library drug + GEM low (ratio)” value [3] was 0.80 and the “Library drug + GEM high (ratio)” value [4] was 0.73. The “Library drug + GEM low (ratio)” value [5] was 0.68, the “Library drug + GEM high (ratio)” value [6] was 0.65 and the “Library drug + GEM low (ratio)” value [7] was 0.63. The “Library drug + GEM high (ratio)” value [8] was 0.65, the “Library drug + GEM low (ratio)” value [9] was 0.67 and the “Library drug + GEM high (ratio)” value [10] was 0.67. The “Library drug + GEM low (ratio)” value [11] was 0.59, the “Library drug + GEM high (ratio)” value [12] was 0.64 and the “Bliss_Library drug + GEM low (ratio)” value [3] was 0.69. For the same molecule, the “Bliss_Library drug + GEM high (ratio)” value [4] was 0.63, the “Bliss_Library drug + GEM low (ratio)” value [5] was 0.65 and the “Bliss_Library drug + GEM high (ratio)” value [6] was 0.60. For the same molecule, the “Bliss_Library drug + GEM low (ratio)” value [7] was 0.57, the “Bliss_Library drug + GEM high (ratio)” value [8] was 0.52 and the “Bliss_Library drug + GEM low (ratio)” value [9] was 0.58. The “Bliss_Library drug + GEM high (ratio)” value [10] was 0.53, the “Bliss_Library drug + GEM low (ratio)” value [11] was 0.30 and the “Bliss_Library drug + GEM high (ratio)” value [12] was 0.27. The “Library drug only (raw)” value (AsPC-1, luminescence signal, library drug 123.46 nM) was 1429160, the “Library drug + GEM low (raw)” value (AsPC-1, luminescence signal, library drug 123.46 nM + GEM 10 nM) was 1506080 and the “Library drug + GEM high (raw)” value (AsPC-1, luminescence signal, library drug 123.46 nM + GEM 30 nM) was 1369120. The “Library drug only (raw)” value (AsPC-1, luminescence signal, library drug 370.37 nM) was 1356440, the “Library drug + GEM low (raw)” value (AsPC-1, luminescence signal, library drug 370.37 nM + GEM 10 nM) was 1276520 and the “Library drug + GEM high (raw)” value (AsPC-1, luminescence signal, library drug 370.37 nM + GEM 30 nM) was 1223760. The “Library drug only (raw)” value (AsPC-1, luminescence signal, library drug 1111.11 nM) was 1177560, the “Library drug + GEM low (raw)” value (AsPC-1, luminescence signal, library drug 1111.11 nM + GEM 10 nM) was 1187000 and the “Library drug + GEM high (raw)” value (AsPC-1, luminescence signal, library drug 1111.11 nM + GEM 30 nM) was 1214720. For the same molecule, the “Library drug only (raw)” value (AsPC-1, luminescence signal, library drug 3333.33 nM) was 1196040, the “Library drug + GEM low (raw)” value (AsPC-1, luminescence signal, library drug 3333.33 nM + GEM 10 nM) was 1253360 and the “Library drug + GEM high (raw)” value (AsPC-1, luminescence signal, library drug 3333.33 nM + GEM 30 nM) was 1251960. The “Library drug only (raw)” value (AsPC-1, luminescence signal, library drug 10000 nM) was 618520, the “Library drug + GEM low (raw)” value (AsPC-1, luminescence signal, library drug 10000 nM + GEM 10 nM) was 1109040 and the “Library drug + GEM high (raw)” value (AsPC-1, luminescence signal, library drug 10000 nM + GEM 30 nM) was 1201080. For the same molecule, the AUC (AsPC-1, no GEM (single drug)) was 82.59%, the Curve bottom (AsPC-1, no GEM (single drug)) was -0.27 and the Curve effect size (AsPC-1, no GEM (single drug)) was 0.57. For the same molecule, the Curve slope (AsPC-1, no GEM (single drug)) was 0.36, the Curve top (AsPC-1, no GEM (single drug)) was 0.97 and the EC50 (ASPC1, read-out: EC50) was 16500 nM. It also gave an EC50 [13] of 16600 nM.

For `Nc1ccn([C@@H]2O[C@H](CO)[C@@H](O)C2(F)F)c(=O)n1` [GEM, Gemcitabine], the Reponse (AsPC-1, R1, 13.72 nM) was 1567840, the Reponse (AsPC-1, R1, 41.15 nM) was 1226120 and the Reponse (AsPC-1, R1, 123.46 nM) was 1025760. For the same molecule, the Reponse (AsPC-1, R1, 370.37 nM) was 921880, the Reponse (AsPC-1, R1, 1111.11 nM) was 872680 and the Reponse (AsPC-1, R1, 3333.33 nM) was 849760. The Reponse (AsPC-1, R1, 10000 nM) was 784080, the Reponse (AsPC-1, R2, 13.72 nM) was 1654800 and the Reponse (AsPC-1, R2, 41.15 nM) was 1220360. For the same molecule, the Reponse (AsPC-1, R2, 123.46 nM) was 984000, the Reponse (AsPC-1, R2, 370.37 nM) was 972200 and the Reponse (AsPC-1, R2, 1111.11 nM) was 963400. For the same molecule, the Reponse (AsPC-1, R2, 10000 nM) was 773560, the AUC (AsPC-1, GEM curve fit) was 70.34 and the Curve bottom (AsPC-1, GEM curve fit) was 0.46. The Curve effect size (AsPC-1, GEM curve fit) was 0.55, the Curve slope (AsPC-1, GEM curve fit) was 1.15 and the Curve top (AsPC-1, GEM curve fit) was 1.04. The “GEM low only (raw)” value (AsPC-1, luminescence signal, plate mean, GEM 10 nM) was 1700020, the “GEM high only (raw)” value (AsPC-1, luminescence signal, plate mean, GEM 30 nM) was 1564215 and the EC50 (ASPC1, read-out: EC50,GEM) was at least 10 nM. For the same molecule, the EC50 (ASPC1, read-out: EC50) was 27.1 nM and the EC50 [13] was 26.9 nM.
